Measurements: ChEMBL document CHEMBL1201862, “PubChem BioAssay data set” (2004)
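Tested at 5 concentrations; 48 h exposure; 96-well plates; endpoints linearly interpolated, else capped at highest concentration. GI50 is the concentration that inhibits growth by half.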 The source made the active and inactive calls. Rule as the data show it: active = GI50 up to about 1.1 µM and inactive = higher.

Columns and labels:
Assay in all cases: NCI anticancer screen, dose series, 48 h
HCT-116 = system: HCT-116
MOLT-4 = system: MOLT-4
EKVX = system: EKVX
SR = system: SR
HL-60 = system: HL-60
HOP-92 = system: HOP-92
RXF 393 = system: RXF 393
T47D = system: T47D
PC-3 = system: PC-3
UO-31 = system: UO-31
786-0 = system: 786-0
U-251 = system: U-251
IGROV-1 = system: IGROV-1
OVCAR-4 = system: OVCAR-4
CCRF-CEM = system: CCRF-CEM
NCI-H522 = system: NCI-H522
SN12C = system: SN12C
DU-145 = system: DU-145
SNB-75 = system: SNB-75
MDA-N = system: MDA-N
KM12 = system: KM12
MDA-MB-435 = system: MDA-MB-435
SW-620 = system: SW-620
NCI-H23 = system: NCI-H23
SK-MEL-28 = system: SK-MEL-28
SF-295 = system: SF-295
M14 = system: M14
K562 = system: K562
OVCAR-5 = system: OVCAR-5
OVCAR-3 = system: OVCAR-3
NCI-H460 = system: NCI-H460
HCT-15 = system: HCT-15
HT-29 = system: HT-29
ACHN = system: ACHN
NCI-H226 = system: NCI-H226
SK-MEL-2 = system: SK-MEL-2
MDA-MB-231 = system: MDA-MB-231
HOP-62 = system: HOP-62
COLO 205 = system: COLO 205
A549 = system: A549
MCF7 = system: MCF7
UACC-62 = system: UACC-62
UACC-257 = system: UACC-257
OVCAR-8 = system: OVCAR-8
SF-539 = system: SF-539
A498 = system: A498
NCI/ADR-RES = system: NCI/ADR-RES
BT-549 = system: BT-549
RPMI-8226 = system: RPMI-8226
Hs-578T = system: Hs-578T
SNB-19 = system: SNB-19
SF-268 = system: SF-268
SK-OV-3 = system: SK-OV-3
CAKI-1 = system: CAKI-1
LOX IMVI = system: LOX IMVI
Malme-3M = system: Malme-3M
TK-10 = system: TK-10
SK-MEL-5 = system: SK-MEL-5

## NC12c3c4cccc3Oc3cccc(c31)Oc1cccc(c12)O4
HCT-116
  GI50: > 50 µM (inactive)
MOLT-4
  GI50: > 50 µM (inactive)
EKVX
  GI50: > 50 µM (inactive)
SR
  GI50: > 50 µM (inactive)
HL-60
  GI50: 18.2 µM (inactive)
HOP-92
  GI50: > 50 µM (inactive)
RXF 393
  GI50: > 50 µM (inactive)
T47D
  GI50: > 50 µM (inactive)
PC-3
  GI50: > 50 µM (inactive)
UO-31
  GI50: > 50 µM (inactive)
786-0
  GI50: > 50 µM (inactive)
U-251
  GI50: > 50 µM (inactive)
IGROV-1
  GI50: > 50 µM (inactive)
OVCAR-4
  GI50: > 50 µM (inactive)
CCRF-CEM
  GI50: > 50 µM (inactive)
NCI-H522
  GI50: 17.7 µM (inactive)
SN12C
  GI50: > 50 µM (inactive)
DU-145
  GI50: > 50 µM (inactive)
SNB-75
  GI50: > 50 µM (inactive)
MDA-N
  GI50: > 50 µM (inactive)
KM12
  GI50: > 50 µM (inactive)
MDA-MB-435
  GI50: > 50 µM (inactive)
SW-620
  GI50: > 50 µM (inactive)
NCI-H23
  GI50: > 50 µM (inactive)
SK-MEL-28
  GI50: > 50 µM (inactive)
SF-295
  GI50: > 50 µM (inactive)
M14
  GI50: > 50 µM (inactive)
K562
  GI50: 31 µM (inactive)
OVCAR-5
  GI50: > 50 µM (inactive)
OVCAR-3
  GI50: > 50 µM (inactive)
NCI-H460
  GI50: > 50 µM (inactive)
HCT-15
  GI50: > 50 µM
HT-29
  GI50: > 50 µM (inactive)
ACHN
  GI50: > 50 µM (inactive)
NCI-H226
  GI50: > 50 µM (inactive)
SK-MEL-2
  GI50: > 50 µM (inactive)
MDA-MB-231
  GI50: > 50 µM (inactive)
HOP-62
  GI50: > 50 µM (inactive)
COLO 205
  GI50: > 50 µM (inactive)
A549
  GI50: > 50 µM (inactive)
MCF7
  GI50: > 50 µM (inactive)
UACC-62
  GI50: > 50 µM (inactive)
UACC-257
  GI50: > 50 µM (inactive)
OVCAR-8
  GI50: > 50 µM (inactive)
SF-539
  GI50: > 50 µM (inactive)
A498
  GI50: > 50 µM (inactive)
NCI/ADR-RES
  GI50: > 50 µM (inactive)
BT-549
  GI50: > 50 µM (inactive)
RPMI-8226
  GI50: > 50 µM (inactive)
Hs-578T
  GI50: 31.3 µM (inactive)
SNB-19
  GI50: > 50 µM (inactive)
SF-268
  GI50: > 50 µM (inactive)
SK-OV-3
  GI50: > 50 µM (inactive)
CAKI-1
  GI50: > 50 µM (inactive)

## O=C1/C(=C/c2n[nH]cc2-c2ccc(Cl)cc2)C(=O)N(c2ccccc2)C1c1ccccc1 (stereo unspecified)
LOX IMVI
  GI50: 14.3 µM (inactive)
HCT-116
  GI50: 12.5 µM (inactive)
MOLT-4
  GI50: 16.9 µM (inactive)
EKVX
  GI50: 20.7 µM (inactive)
SR
  GI50: 11.8 µM (inactive)
HL-60
  GI50: 12.9 µM (inactive)
HOP-92
  GI50: 23.4 µM (inactive)
RXF 393
  GI50: 14.3 µM (inactive)
T47D
  GI50: 1.69 µM (inactive)
PC-3
  GI50: 6.92 µM (inactive)
UO-31
  GI50: 18.9 µM (inactive)
786-0
  GI50: 17.2 µM (inactive)
U-251
  GI50: 19.9 µM (inactive)
IGROV-1
  GI50: 16.6 µM (inactive)
Malme-3M
  GI50: 22.9 µM (inactive)
OVCAR-4
  GI50: 25.6 µM (inactive)
CCRF-CEM
  GI50: 17.6 µM (inactive)
NCI-H522
  GI50: 7.74 µM (inactive)
SN12C
  GI50: 29.1 µM (inactive)
DU-145
  GI50: 20.6 µM (inactive)
TK-10
  GI50: 27.5 µM (inactive)
MDA-N
  GI50: 14 µM (inactive)
KM12
  GI50: 20.9 µM (inactive)
MDA-MB-435
  GI50: 14.9 µM (inactive)
SW-620
  GI50: 18.3 µM (inactive)
NCI-H23
  GI50: 13.3 µM (inactive)
SK-MEL-28
  GI50: 17.7 µM (inactive)
SF-295
  GI50: 18.4 µM (inactive)
M14
  GI50: 12.9 µM (inactive)
K562
  GI50: 8.41 µM (inactive)
OVCAR-3
  GI50: 6.28 µM (inactive)
NCI-H460
  GI50: 26.4 µM (inactive)
HCT-15
  GI50: 15 µM
HT-29
  GI50: 12.3 µM (inactive)
ACHN
  GI50: 20.1 µM (inactive)
NCI-H226
  GI50: 24.2 µM (inactive)
SK-MEL-2
  GI50: 15.2 µM (inactive)
MDA-MB-231
  GI50: 18.9 µM (inactive)
HOP-62
  GI50: 17.4 µM (inactive)
COLO 205
  GI50: 14.2 µM (inactive)
A549
  GI50: 25 µM (inactive)
MCF7
  GI50: 25.9 µM (inactive)
UACC-62
  GI50: 11.5 µM (inactive)
UACC-257
  GI50: 19.7 µM (inactive)
SF-539
  GI50: 22.3 µM (inactive)
A498
  GI50: 20.6 µM (inactive)
NCI/ADR-RES
  GI50: 21.6 µM (inactive)
BT-549
  GI50: 14.6 µM (inactive)
RPMI-8226
  GI50: 13.7 µM (inactive)
Hs-578T
  GI50: 9.4 µM (inactive)
SNB-19
  GI50: 27.4 µM (inactive)
SF-268
  GI50: 13.7 µM (inactive)
SK-OV-3
  GI50: 15.5 µM (inactive)
CAKI-1
  GI50: 10.1 µM (inactive)
SK-MEL-5
  GI50: 13.8 µM (inactive)

## COc1ccc(-c2nc(O)c3ccccc3n2)cc1
LOX IMVI
  GI50: 39.8 µM (inactive)
HCT-116
  GI50: 77.1 µM (inactive)
MOLT-4
  GI50: > 100 µM (inactive)
EKVX
  GI50: > 100 µM (inactive)
SR
  GI50: 45.4 µM (inactive)
HL-60
  GI50: > 100 µM (inactive)
HOP-92
  GI50: > 100 µM (inactive)
RXF 393
  GI50: > 100 µM (inactive)
T47D
  GI50: 84.5 µM (inactive)
PC-3
  GI50: > 100 µM (inactive)
UO-31
  GI50: > 100 µM (inactive)
786-0
  GI50: 48.3 µM (inactive)
U-251
  GI50: 24.8 µM (inactive)
IGROV-1
  GI50: 29.1 µM (inactive)
Malme-3M
  GI50: > 100 µM (inactive)
OVCAR-4
  GI50: 26.9 µM (inactive)
CCRF-CEM
  GI50: > 100 µM (inactive)
NCI-H522
  GI50: 52.7 µM (inactive)
SN12C
  GI50: 61.2 µM (inactive)
DU-145
  GI50: > 100 µM (inactive)
SNB-75
  GI50: 40.4 µM (inactive)
TK-10
  GI50: > 100 µM (inactive)
MDA-N
  GI50: > 100 µM (inactive)
KM12
  GI50: > 100 µM (inactive)
MDA-MB-435
  GI50: > 100 µM (inactive)
SW-620
  GI50: > 100 µM (inactive)
NCI-H23
  GI50: 87.5 µM (inactive)
SK-MEL-28
  GI50: 43.6 µM (inactive)
SF-295
  GI50: > 100 µM (inactive)
M14
  GI50: > 100 µM (inactive)
K562
  GI50: > 100 µM (inactive)
OVCAR-5
  GI50: > 100 µM (inactive)
OVCAR-3
  GI50: > 100 µM (inactive)
HCT-15
  GI50: 43.1 µM
HT-29
  GI50: > 100 µM (inactive)
ACHN
  GI50: > 10 µM (inactive)
NCI-H226
  GI50: 38.6 µM (inactive)
SK-MEL-2
  GI50: > 100 µM (inactive)
MDA-MB-231
  GI50: 40.8 µM (inactive)
HOP-62
  GI50: > 100 µM (inactive)
COLO 205
  GI50: > 100 µM (inactive)
A549
  GI50: > 100 µM (inactive)
MCF7
  GI50: 35.9 µM (inactive)
UACC-62
  GI50: 71.1 µM (inactive)
UACC-257
  GI50: > 100 µM (inactive)
OVCAR-8
  GI50: 32.4 µM (inactive)
SF-539
  GI50: 45.9 µM (inactive)
A498
  GI50: 47 µM (inactive)
NCI/ADR-RES
  GI50: 27.1 µM (inactive)
BT-549
  GI50: 83.9 µM (inactive)
RPMI-8226
  GI50: > 100 µM (inactive)
Hs-578T
  GI50: 2.44 µM (inactive)
SNB-19
  GI50: > 100 µM (inactive)
SF-268
  GI50: > 100 µM (inactive)
SK-OV-3
  GI50: > 100 µM (inactive)
CAKI-1
  GI50: 76.6 µM (inactive)
SK-MEL-5
  GI50: > 100 µM (inactive)
